Reference: patent US12139520B2 (priority 2020, dated 2024)
Bridge positions count the residues as written; N and C are the ends. Square brackets hold non-standard residues; d marks the D form. Peptide text beside a SMILES is read from it. Hyp = O=C(O)[C@@H]1C[C@@H](O)CN1; Cit = NC(=O)NCCC[C@H](N)C(=O)O

How the values were obtained:
hAMY3 receptor = target: T1, hAMY3 receptor (Homo sapiens, UniProt O60896+P30988); test: cAMP assay for in vitro receptor activation, hAMY3-R; type: cell-based; settings: cAMP assay, hAMY3 receptor; read-out: hAMY3R EC50
T1 sequence (P30988 25-474): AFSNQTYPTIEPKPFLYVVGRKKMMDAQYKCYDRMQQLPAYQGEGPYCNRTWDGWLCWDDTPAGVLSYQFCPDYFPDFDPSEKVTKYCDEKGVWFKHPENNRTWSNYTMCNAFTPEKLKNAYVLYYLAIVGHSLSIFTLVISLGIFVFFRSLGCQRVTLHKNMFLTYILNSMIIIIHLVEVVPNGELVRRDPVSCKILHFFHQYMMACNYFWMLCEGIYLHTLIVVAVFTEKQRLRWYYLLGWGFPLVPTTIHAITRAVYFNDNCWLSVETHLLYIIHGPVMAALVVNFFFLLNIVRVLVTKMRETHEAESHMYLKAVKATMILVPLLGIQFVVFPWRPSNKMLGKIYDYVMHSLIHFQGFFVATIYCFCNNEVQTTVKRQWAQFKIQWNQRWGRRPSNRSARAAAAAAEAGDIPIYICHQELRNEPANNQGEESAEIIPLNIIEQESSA
T1 sequence (O60896 24-148 partner): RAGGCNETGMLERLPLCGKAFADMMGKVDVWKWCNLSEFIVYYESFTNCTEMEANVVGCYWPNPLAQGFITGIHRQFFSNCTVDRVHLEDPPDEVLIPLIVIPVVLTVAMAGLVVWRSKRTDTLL
Procedure, shortened: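 Accumulated cAMP was detected by time-resolved FRET one hour after reagent addition. Beforehand, hAMY3-R-overexpressing monoclonal cells (2000/well, DPBS, 0.05% casein, 0.5 mM IBMX) received graded doses of compound for 30 min at room temperature; human amylin served as positive control.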

hAM1 receptor = hAM1 receptor (Homo sapiens, UniProt O60895+Q16602); test: cAMP assay for in vitro receptor activation, hAM1-R; type: cell-based; settings: cAMP assay, hAM1 receptor; read-out: hAM1R EC50
Procedure, shortened: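 Monoclonal stable hAM1-overexpressing cells, thawed from frozen stock; 8000 cells/well in DPBS + 0.05% casein + 0.5 mM IBMX; read-out cAMP.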

[1] = Physical stability of peptide analogues (Thioflavin T fibrillation); type: physicochemical; settings: maximum ThT signal normalized between hAMY maximum and buffer background; 40° C., shaking, four days; pH 7 per table title
Procedure, shortened: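 ThT fluorescence (450 nm excitation, 480 nm emission; 4 μM dye) was read every 10 min over four days at 40° C under 700 rpm shaking stress, after 1 h in pH 4 acetate or pH 7 phosphate (50 mM). Peak smoothed signal expressed as percent, scaled between buffer background and hAMY maximum.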

Sequence of hAM1 receptor (Q16602 23-461): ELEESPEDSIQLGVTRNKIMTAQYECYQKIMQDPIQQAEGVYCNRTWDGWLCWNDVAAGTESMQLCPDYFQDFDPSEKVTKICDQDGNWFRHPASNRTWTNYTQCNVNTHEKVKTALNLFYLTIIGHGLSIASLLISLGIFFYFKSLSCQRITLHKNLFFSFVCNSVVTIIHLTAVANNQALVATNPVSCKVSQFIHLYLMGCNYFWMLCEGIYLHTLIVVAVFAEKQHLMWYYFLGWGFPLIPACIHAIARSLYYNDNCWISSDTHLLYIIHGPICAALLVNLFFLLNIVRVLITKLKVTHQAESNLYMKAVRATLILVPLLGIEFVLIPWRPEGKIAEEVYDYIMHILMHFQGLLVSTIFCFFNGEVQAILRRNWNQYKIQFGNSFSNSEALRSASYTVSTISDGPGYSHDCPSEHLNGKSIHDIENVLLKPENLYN
Sequence of hAM1 receptor (O60895 43-175 partner): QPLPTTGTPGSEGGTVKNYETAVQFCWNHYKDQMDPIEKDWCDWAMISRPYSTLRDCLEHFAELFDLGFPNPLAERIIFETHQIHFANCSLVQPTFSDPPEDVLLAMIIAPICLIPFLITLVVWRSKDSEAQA

EC50 (hAMY3 receptor) | EC50 (hAM1 receptor) | Max ThT signal (%) [1] | Structure (SMILES)
0.004 nM | > 5000 nM | 9.600% | CC[C@H](C)[C@H](NC(=O)[C@H](CCC(N)=O)NC(=O)[C@H](Cc1c[nH]cn1)NC(=O)[C@H](C)NC(=O)[C@H](CC(C)C)NC(=O)[C@H](CCCNC(N)=O)NC(=O)[C@H](CCC(N)=O)NC(=O)[C@@H](NC(=O)[C@@H](NC(=O)[C@@H]1CSSC[C@H](NC(=O)[C@@H](N)CCCCN)C(=O)N[C@@H](CC(N)=O)C(=O)N[C@@H]([C@@H](C)O)C(=O)N[C@@H](C)C(=O)N[C@@H]([C@@H](C)O)C(=O)N1)[C@@H](C)O)C(C)C)C(=O)N[C@@H](Cc1ccc(O)cc1)C(=O)N[C@@H](CCC(N)=O)C(=O)N[C@@H](Cc1ccccc1)C(=O)N[C@H](C(=O)N[C@@H](CCCCN)C(=O)N[C@@H](CC(=O)O)C(=O)N[C@@H](CCCCN)C(=O)N[C@@H](CC(=O)O)C(=O)N[C@@H](CC(N)=O)C(=O)N[C@H](C(=O)N[C@@H](C)C(=O)N1CCC[C@H]1C(=O)N1CCC[C@H]1C(=O)N[C@H](C(=O)N[C@@H](CC(N)=O)C(=O)N[C@H](C(=O)NCC(=O)N[C@@H](CO)C(=O)N[C@@H](CC(N)=O)C(=O)NCC(=O)N1C[C@H](O)C[C@H]1C(N)=O)C(C)C)[C@@H](C)O)C(C)C)[C@@H](C)O [compound 253] (H-KCNTATCTVQ[Cit]LAHQIYQFTKDKDNVAPPTNVGSNG[Hyp]-NH2; disulfide 2-7; N-terminus assumed)
0.236 nM | 107 nM | 25.700% | CC[C@H](C)[C@H](NC(=O)[C@H](CCC(N)=O)NC(=O)[C@H](CCC(=O)O)NC(=O)[C@H](C)NC(=O)[C@H](CC(C)C)NC(=O)[C@H](Cc1c[nH]c2ccccc12)NC(=O)[C@H](CCC(N)=O)NC(=O)[C@@H](NC(=O)[C@@H](NC(=O)[C@@H]1CSSC[C@H](NC(=O)[C@@H](N)CCCCN)C(=O)N[C@@H](CC(N)=O)C(=O)N[C@@H](C)C(=O)N[C@@H](C)C(=O)N[C@@H]([C@@H](C)O)C(=O)N1)[C@@H](C)O)C(C)C)C(=O)N[C@@H](Cc1ccc(O)cc1)C(=O)N[C@@H](CCC(N)=O)C(=O)N[C@@H](Cc1ccccc1)C(=O)N[C@H](C(=O)N[C@@H](CC(=O)O)C(=O)N[C@@H](CCCCN)C(=O)N[C@@H](CC(=O)O)C(=O)N[C@@H](CCCCN)C(=O)N[C@@H](CC(=O)O)C(=O)N[C@@H](CC(N)=O)C(=O)N[C@H](C(=O)N[C@@H](C)C(=O)N1CCC[C@H]1C(=O)N1CCC[C@H]1C(=O)N[C@H](C(=O)N[C@@H](CC(N)=O)C(=O)N[C@H](C(=O)NCC(=O)N[C@@H](CO)C(=O)N[C@@H](CC(N)=O)C(=O)NCC(=O)N1C[C@H](O)C[C@H]1C(N)=O)C(C)C)[C@@H](C)O)C(C)C)[C@@H](C)O [compound 333] (H-KCNAATCTVQWLAEQIYQFTDKDKDNVAPPTNVGSNG[Hyp]-NH2; disulfide 2-7; N-terminus assumed)
– | > 5000 nM | 10.650% | CC[C@H](C)[C@H](NC(=O)[C@H](CCC(N)=O)NC(=O)[C@H](Cc1c[nH]cn1)NC(=O)[C@H](C)NC(=O)[C@H](CC(C)C)NC(=O)[C@H](CCCNC(N)=O)NC(=O)[C@H](CCC(N)=O)NC(=O)[C@@H](NC(=O)[C@@H](NC(=O)[C@@H]1CSSC[C@H](NC(=O)CN)C(=O)N[C@@H](CCCNC(=N)N)C(=O)N[C@@H](Cc2ccccc2)C(=O)NCC(=O)N[C@@H]([C@@H](C)O)C(=O)N1)[C@@H](C)O)C(C)C)C(=O)N[C@@H](Cc1ccc(O)cc1)C(=O)N[C@@H](CCC(N)=O)C(=O)N[C@@H](Cc1ccccc1)C(=O)N[C@H](C(=O)N[C@@H](CC(=O)O)C(=O)N[C@@H](CCCCN)C(=O)N[C@@H](CC(=O)O)C(=O)N[C@@H](CCCCN)C(=O)N[C@@H](CC(=O)O)C(=O)N[C@@H](CC(N)=O)C(=O)N[C@H](C(=O)N[C@@H](C)C(=O)N1CCC[C@H]1C(=O)N[C@@H](CCCNC(=N)N)C(=O)N[C@H](C(=O)N[C@@H](CCCCN)C(=O)N[C@H](C(=O)N[C@@H](CO)C(=O)N1CCC[C@H]1C(=O)N[C@@H](CCC(N)=O)C(=O)NCC(=O)N1C[C@H](O)C[C@H]1C(N)=O)C(C)C)[C@@H](C)O)C(C)C)[C@@H](C)O [compound 287] (H-GCRFGTCTVQ[Cit]LAHQIYQFTDKDKDNVAPRTKVSPQG[Hyp]-NH2; disulfide 2-7; N-terminus assumed)
– | > 5000 nM | 0.500% | CC[C@H](C)[C@H](NC(=O)[C@H](CCC(N)=O)NC(=O)[C@H](Cc1c[nH]cn1)NC(=O)[C@H](C)NC(=O)[C@H](CC(C)C)NC(=O)[C@H](CCCNC(=N)N)NC(=O)[C@H](CCC(N)=O)NC(=O)[C@@H](NC(=O)[C@@H](NC(=O)[C@@H]1CSSC[C@H](NC(=O)CN)C(=O)N[C@@H](CCCNC(=N)N)C(=O)N[C@@H]([C@@H](C)O)C(=O)NCC(=O)N[C@@H]([C@@H](C)O)C(=O)N1)[C@@H](C)O)C(C)C)C(=O)N[C@@H](C)C(=O)N[C@@H](CCC(N)=O)C(=O)N[C@@H](Cc1ccccc1)C(=O)N[C@H](C(=O)N[C@@H](CC(=O)O)C(=O)N[C@@H](CCCCN)C(=O)N[C@@H](Cc1ccccc1)C(=O)N[C@@H](CCCCN)C(=O)N[C@@H](CC(=O)O)C(=O)N[C@@H](CC(N)=O)C(=O)N[C@H](C(=O)N[C@@H](C)C(=O)N1CCC[C@H]1C(=O)N[C@@H](CCCNC(=N)N)C(=O)N[C@@H](CO)C(=O)N[C@@H](CCCCN)C(=O)N[C@H](C(=O)N[C@@H](CO)C(=O)N1CCC[C@H]1C(=O)N[C@@H](CCC(N)=O)C(=O)N[C@H](C(=O)N1C[C@H](O)C[C@H]1C(N)=O)[C@@H](C)O)[C@@H](C)CC)C(C)C)[C@@H](C)O [compound 196] (H-GCRTGTCTVQRLAHQIAQFTDKFKDNVAPRSKISPQT[Hyp]-NH2; disulfide 2-7; N-terminus assumed)
– | > 5000 nM | 7.200% | CC[C@H](C)[C@@H]1NC(=O)[C@H](CCCNC(=N)N)NC(=O)[C@@H](NC(=O)CN)CSSC[C@@H](C(=O)N[C@H](C(=O)N[C@H](C(=O)N[C@@H](CCC(N)=O)C(=O)N[C@@H](Cc2c[nH]c3ccccc23)C(=O)N[C@@H](CC(C)C)C(=O)N[C@@H](C)C(=O)N[C@@H](Cc2c[nH]cn2)C(=O)N[C@@H](CCC(N)=O)C(=O)N[C@H](C(=O)N[C@@H](Cc2ccc(O)cc2)C(=O)N[C@@H](CCC(N)=O)C(=O)N[C@@H](Cc2ccccc2)C(=O)N[C@H](C(=O)N[C@@H](CC(=O)O)C(=O)N[C@@H](CCCCN)C(=O)N[C@@H](Cc2ccccc2)C(=O)N[C@@H](CCCCN)C(=O)N[C@@H](CC(=O)O)C(=O)N[C@@H](CC(N)=O)C(=O)N[C@H](C(=O)N[C@@H](C)C(=O)N2CCC[C@H]2C(=O)N[C@@H](CCCNC(=N)N)C(=O)N[C@@H](CO)C(=O)N[C@@H](CCCCN)C(=O)N[C@H](C(=O)N[C@@H](CO)C(=O)N2CCC[C@H]2C(=O)N[C@@H](CCC(N)=O)C(=O)N[C@H](C(=O)N2C[C@H](O)C[C@H]2C(N)=O)[C@@H](C)O)[C@@H](C)CC)C(C)C)[C@@H](C)O)[C@@H](C)CC)C(C)C)[C@@H](C)O)NC(=O)[C@H]([C@@H](C)O)NC(=O)CNC1=O [compound 351] (H-GCRIGTCTVQWLAHQIYQFTDKFKDNVAPRSKISPQT[Hyp]-NH2; disulfide 2-7; N-terminus assumed)
– | > 5000 nM | 18.150% | CC[C@H](C)[C@H](NC(=O)[C@H](CC(N)=O)NC(=O)[C@H](CO)NC(=O)[C@H](CCCNC(=N)N)NC(=O)[C@@H]1CCCN1C(=O)[C@H](C)NC(=O)[C@@H](NC(=O)[C@H](CC(N)=O)NC(=O)[C@H](CC(=O)O)NC(=O)[C@H](CCCCN)NC(=O)[C@H](CC(=O)O)NC(=O)[C@H](CCCCN)NC(=O)[C@H](CC(=O)O)NC(=O)[C@@H](NC(=O)[C@H](Cc1ccccc1)NC(=O)[C@H](CCC(N)=O)NC(=O)[C@H](Cc1ccc(O)cc1)NC(=O)[C@@H](NC(=O)[C@H](CCC(N)=O)NC(=O)[C@H](Cc1c[nH]cn1)NC(=O)[C@H](C)NC(=O)[C@H](CC(C)C)NC(=O)[C@H](CCCNC(N)=O)NC(=O)[C@H](CCC(N)=O)NC(=O)[C@@H](NC(=O)[C@@H](NC(=O)[C@@H]1CSSC[C@H](NC(=O)CN)C(=O)N[C@@H](CCCNC(=N)N)C(=O)N[C@@H]([C@@H](C)O)C(=O)NCC(=O)N[C@@H]([C@@H](C)O)C(=O)N1)[C@@H](C)O)C(C)C)[C@@H](C)CC)[C@@H](C)O)C(C)C)C(=O)NCC(=O)N1CCC[C@H]1C(=O)N[C@@H](CCC(N)=O)C(=O)NCC(=O)N1C[C@H](O)C[C@H]1C(N)=O [compound 303] (H-GCRTGTCTVQ[Cit]LAHQIYQFTDKDKDNVAPRSNIGPQG[Hyp]-NH2; disulfide 2-7)
